Laboratory results reported in the supplement of paper PMC12137928.
Counter-ions that a name gives are not always drawn.

Tested on: HCT116
Details: 72 h
Procedure, shortened: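 After seeding at 250 cells per well in 1536-well plates, HCT116 cells were given 5 h to attach. CellTiter-Glo luminescence, scaled to 0% for vehicle and -100% for positive control, was pattern-corrected. Fitting with a four-parameter Hill model produced IC50 and maximal efficacy.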

Row | Structure (SMILES) | IC50 cell viability (ICRF193 0 nM) | IC50 cell viability (ICRF193 200 nM)
1 | CC(=O)O[C@H]1CC[C@@]2(C)C(=CC[C@@H]3[C@@H]2CC[C@]2(C)C(c4cccnc4)=CC[C@@H]32)C1 [Abiraterone acetate] | > 45.8 µM | > 45.8 µM
2 | NC(=O)c1ncn([C@@H]2O[C@H](CO)[C@@H](O)[C@H]2O)c1N [Acadesine] | > 45.8 µM | > 45.8 µM
3 | CC(=O)NCCCS(=O)(=O)O [Acamprosate Calcium] | > 45.8 µM | > 45.8 µM
4 | C[C@H]1O[C@H](O[C@H]2[C@H](O)[C@@H](O)[C@@H](O[C@H]3[C@H](O)[C@@H](O)C(O)O[C@@H]3CO)O[C@@H]2CO)[C@H](O)[C@@H](O)[C@@H]1N[C@H]1C=C(CO)[C@@H](O)[C@H](O)[C@H]1O (stereo partly specified) [Acarbose] | > 45.8 µM | > 45.8 µM
5 | CCCC(=O)Nc1ccc(OCC(O)CNC(C)C)c(C(C)=O)c1 (stereo unspecified) [Acebutolol hydrochloride] | > 45.8 µM | > 45.8 µM
6 | O=C(O)COC(=O)Cc1ccccc1Nc1c(Cl)cccc1Cl [Aceclofenac] | > 45.8 µM | > 45.8 µM
7 | CC(=O)O[C@@H]1C(=O)O[C@H]2[C@@H]1OC(=O)[C@@H]2OC(C)=O [Aceglatone] | > 45.8 µM | > 45.8 µM
8 | COc1ccc2c(c1)c(CC(=O)OCC(=O)O)c(C)n2C(=O)c1ccc(Cl)cc1 [Acemetacin] | > 45.8 µM | > 45.8 µM
9 | CC(=O)CC(c1ccc([N+](=O)[O-])cc1)c1c(O)c2ccccc2oc1=O (stereo unspecified) [Acenocoumarol] | > 45.8 µM | > 45.8 µM
10 | CC(=O)Nc1ccc(O)cc1 [Acetaminophen] | > 45.8 µM | > 45.8 µM
11 | CC(=O)Nc1ccccc1 [Acetanilide] | > 45.8 µM | > 45.8 µM
12 | CC(=O)Nc1cc([As](=O)(O)O)ccc1O [Acetarsol] | > 45.8 µM | > 45.8 µM
13 | CC(=O)Nc1nnc(S(N)(=O)=O)s1 [Acetazolamide] | > 45.8 µM | > 45.8 µM
14 | CC(=O)c1ccc(S(=O)(=O)NC(=O)NC2CCCCC2)cc1 [Acetohexamide] | > 45.8 µM | > 45.8 µM
15 | CC(=O)c1ccc2c(c1)N(CCCN1CCN(CCO)CC1)c1ccccc1S2 [Acetophenazine Maleate] | > 45.8 µM | > 45.8 µM
16 | CC(=O)c1ccc2c(c1)N(CCCN(C)C)c1ccccc1S2 [Acetopromazine maleate] | > 45.8 µM | > 45.8 µM
17 | CC(=O)Nc1c(I)cc(I)c(C(=O)O)c1I [Acetrizoic acid] | > 45.8 µM | > 45.8 µM
18 | CC(=O)OCC[N+](C)(C)C [Acetylcholine chloride] | > 45.8 µM | > 45.8 µM
19 | CC(=O)N[C@@H](CS)C(=O)O [Acetylcysteine] | > 45.8 µM | > 45.8 µM
20 | CCC(C(=O)NC(=O)NC(C)=O)c1ccccc1 (stereo unspecified) [Acetylpheneturide] | > 45.8 µM | > 45.8 µM
21 | Nc1nc2c(ncn2COCCO)c(=O)[nH]1 [Aciclovir] | > 45.8 µM | > 45.8 µM

Row | Structure (SMILES) | IC50 cell viability (ICRF193 0 nM) | IC50 cell viability (ICRF193 200 nM)
22 | O=C(O)C(=O)Nc1cccc(-c2nnn[nH]2)c1 [Acitazanolast] | > 45.8 µM | > 45.8 µM
23 | COc1cc(C)c(/C=C/C(C)=C/C=C/C(C)=C/C(=O)O)c(C)c1C [Acitretin] | > 45.8 µM | > 45.8 µM
24 | O=C(O[C@H]1C[N+]2(CCCOc3ccccc3)CCC1CC2)C(O)(c1cccs1)c1cccs1 [Aclidinium (Bromide)] | > 45.8 µM | > 45.8 µM
25 | CCN1C[C@]2(COC)[C@H](O)C[C@H](OC)[C@@]34[C@@H]5C[C@@]6(O)[C@H](OC(=O)c7ccccc7)[C@@H]5[C@@](OC(C)=O)([C@@H]([C@H](OC)[C@H]23)[C@@H]14)[C@@H](O)[C@@H]6OC [Aconitine] | > 45.8 µM | > 45.8 µM
26 | CC(=O)OCC(=O)Nc1cc(C#N)cc(NC(=O)COC(C)=O)c1Cl [Acreozast] | > 45.8 µM | > 45.8 µM
27 | Cc1ccc(/C(=C\CN2CCCC2)c2cccc(/C=C/C(=O)O)n2)cc1 [Acrivastine] | > 45.8 µM | > 45.8 µM
28 | COc1ccc(-c2ccc3cc(C(=O)O)ccc3c2)cc1C12CC3CC(CC(C3)C1)C2 [Adapalene] | > 45.8 µM | > 45.8 µM
29 | Nc1[nH]cnc2ncnc1-2 [Adenine] | > 45.8 µM | > 45.8 µM
30 | Nc1ncnc2c1ncn2[C@@H]1O[C@H](CO)[C@@H](O)[C@H]1O [Adenosine] | > 45.8 µM | > 45.8 µM
31 | O=S(O)CNc1ccc(S(=O)(=O)c2ccc(NCS(=O)O)cc2)cc1 [Adesulfone sodium] | > 45.8 µM | > 45.8 µM
32 | CN1CC(O)C2=C/C(=N/NC(N)=O)C(=O)C=C21 (stereo unspecified) [Adrenochrome semicarbazone] | > 45.8 µM | > 45.8 µM
33 | Cc1ccccc1-n1c(CF)nc2ccc(N)cc2c1=O [Afloqualone] | > 45.8 µM | > 45.8 µM
34 | CCCCCCCCCCCCCCCCC(C(=O)O)C(O)(CC(=O)O)C(=O)O (stereo unspecified) [Agaric acid] | > 45.8 µM | > 45.8 µM
35 | COc1ccc2cccc(CCNC(C)=O)c2c1 [Agomelatine] | > 45.8 µM | > 45.8 µM
36 | CC[C@H]1[C@@H]2C[C@H]3[C@@H]4N(C)c5ccccc5[C@]45C[C@@H]([C@@H]2[C@H]5O)N3[C@@H]1O [Ajmaline] | > 45.8 µM | > 45.8 µM
37 | CC(=O)SC[C@@H](C)C(=O)N1CCC[C@H]1C(=O)N[C@@H](Cc1ccccc1)C(=O)O [Alacepril] | > 45.8 µM | > 45.8 µM
38 | C[C@H](N)C(=O)N[C@@H](C)C(=O)N[C@H]1[C@@H]2CN(c3nc4c(cc3F)c(=O)c(C(=O)O)cn4-c3ccc(F)cc3F)C[C@@H]21 [Alatrofloxacin mesylate] | > 45.8 µM | > 45.8 µM
39 | C=CCOc1ccc(CC(=O)O)cc1Cl [Alclofenac] | > 45.8 µM | > 45.8 µM
40 | CCC(=O)OCC(=O)[C@@]1(OC(=O)CC)[C@H](C)C[C@H]2[C@H]3[C@H]([C@@H](O)C[C@@]21C)[C@@]1(C)C=CC(=O)C=C1C[C@H]3Cl [Alclometasone dipropionate] | > 45.8 µM | > 45.8 µM
41 | C=CC[N@@+]12CC[C@@]34c5ccccc5N5/C=C6/[C@H]7C[C@H]8[C@@]9(CC[N@@+]8(CC=C)C/C7=C/CO)c7ccccc7N(/C=C(/[C@@H](C[C@@H]31)/C(=C\CO)C2)[C@H]54)[C@@H]69 [Alcuronium chloride] | > 45.8 µM | > 45.8 µM
42 | CCc1cc2c(cc1N1CCC(N3CCOCC3)CC1)C(C)(C)c1[nH]c3cc(C#N)ccc3c1C2=O [Alectinib] | > 45.8 µM | > 45.8 µM

Row | Structure (SMILES) | IC50 cell viability (ICRF193 0 nM) | IC50 cell viability (ICRF193 200 nM)
43 | COc1cc2nc(N(C)CCCNC(=O)C3CCCO3)nc(N)c2cc1OC (stereo unspecified) [Alfuzosin hydrochloride] | > 45.8 µM | > 45.8 µM
44 | Cc1ccccc1C(=O)N1CC/C(=N\OS(=O)(=O)O)c2ccc(Cl)cc21 [Alilusem potassium] | > 45.8 µM | > 45.8 µM
45 | COCCCOc1cc(C[C@@H](C[C@H](N)[C@@H](O)C[C@H](C(=O)NCC(C)(C)C(N)=O)C(C)C)C(C)C)ccc1OC [Aliskiren hemifumarate] | > 45.8 µM | > 45.8 µM
46 | NC(=O)NC1NC(=O)NC1=O (stereo unspecified) [Allantoin] | > 45.8 µM | > 45.8 µM
47 | C=CCC1=C(C)C(OC(=O)C2C(C=C(C)C)C2(C)C)CC1=O (stereo unspecified) [Allethrin] | > 45.8 µM | > 45.8 µM
48 | C=CCOc1cc(Cl)ccc1C(=O)NCCN(CC)CC [Alloclamide] | > 45.8 µM | > 45.8 µM
49 | Oc1ncnc2[nH]ncc12 [Allopurinol] | > 45.8 µM | > 45.8 µM
50 | C=CC[C@]1(O)CC[C@H]2[C@@H]3CCC4=CCCC[C@@H]4[C@H]3CC[C@@]21C [Allylestrenol] | > 45.8 µM | > 45.8 µM
51 | C=CCNC(N)=S [Allylthiourea] | > 45.8 µM | > 45.8 µM
52 | CN(C)CCc1c[nH]c2ccc(CS(=O)(=O)N3CCCC3)cc12 [Almotriptan] | > 45.8 µM | > 45.8 µM
53 | Cc1[nH]cnc1CN1CCc2c(c3ccccc3n2C)C1=O [Alosetron hydrochloride] | > 45.8 µM | > 45.8 µM
54 | C=CCc1ccccc1OCC(O)CNC(C)C (stereo unspecified) [Alprenolol] | > 45.8 µM | > 45.8 µM
55 | C=CC[C@]1(O)CC[C@H]2[C@@H]3CCC4=CC(=O)CCC4=C3C=C[C@@]21C [Altrenogest] | > 45.8 µM | > 45.8 µM
56 | CN(C)c1nc(N(C)C)nc(N(C)C)n1 [Altretamine] | > 45.8 µM | > 45.8 µM
57 | CCN(CCCc1ccccc1)CCCc1ccccc1 [Alverine citrate] | > 45.8 µM | > 45.8 µM
58 | C[C@H]1CN(C[C@H](Cc2ccccc2)C(=O)NCC(=O)O)CC[C@@]1(C)c1cccc(O)c1 [Alvimopan] | > 45.8 µM | > 45.8 µM
59 | NC12CC3CC(CC(C3)C1)C2 [Amantadine hydrochloride] | > 45.8 µM | > 45.8 µM
60 | CC[N+](CC)(CCNC(=O)C(=O)NCC[N+](CC)(CC)Cc1ccccc1Cl)Cc1ccccc1Cl [Ambenonium chloride] | > 45.8 µM | > 45.8 µM
61 | COC(c1ccccc1)(c1ccccc1)[C@H](Oc1nc(C)cc(C)n1)C(=O)O [Ambrisentan] | > 45.8 µM | > 45.8 µM
62 | Nc1c(Br)cc(Br)cc1CN[C@H]1CC[C@H](O)CC1 [Ambroxol hydrochloride] | > 45.8 µM | > 45.8 µM
63 | CC1(C)S[C@@H]2[C@H](/N=C/N3CCCCCC3)C(=O)N2[C@H]1C(=O)O [Amdinocillin] | > 45.8 µM | > 45.8 µM
